According to patent US20190106460A1, “BINDING INHIBITORS OF THE BETA. TRANSDUCIN REPEAT-CONTAINING PROTEIN” (priority 2011, published 2019):
Non-standard residues stand in square brackets, D forms with d. Residues, ends and D or L forms follow the SMILES beside them. Groups on a side chain read outwards from the residue. *: point of attachment. X3 = CC(C)CCC[C@@H](C)[C@H]1CCC2C3CC=C4C[C@@H](OC(=O)*)CC[C@]4(C)C3CC[C@@]21C; Benzenesulfonyl(4-OMe) = COc1ccc(S(=O)(=O)*)cc1; Phe(3-F) = N[C@@H](Cc1cccc(F)c1)C(=O)O; Ahx = NCCCCCC(=O)O

How the values were obtained:
Type in all cases: cell-based
[1] = test system: PDCD4 in MCF7 cells; test: In-cell western assay for PDCD4 accumulation
Procedure: In-Cell Western Assay for PDCD4 Accumulation.
To measure this an in-cell western assay was used and the peptidomimetics were delivered to the cells by nucleofection.
MCF7 cells were grown in 10 cm dishes in 10 ml DMEM+10% FBS and 1% Pen/Strep at 37° C./5% CO2. On the day of nucleofection, the dish was washed with 90% confluent MCF7 cells with 5 ml PBS, then 3 ml of Trypsin/EDTA was added and incubated at 37° C./5% CO2 for approximately 5 mins until the cells detached from the plastic. 7 ml of normal growth media was added and the number of cells present was counted using a haemocytometer.
The cells were centrifuged cells at 90 g for 10 mins at RT and the supernatant was removed. 100 μl of Nucleofection Buffer V+ Supplement was added (Lonza Biologics Cat no VCA-1003) per 8×10^5 cells, and the cells were added to peptidomimetics dissolved in <3% DMSO.
The cell/peptidomimetic mix was added to cuvettes supplied for the nucleofector and the sample was nucleofected using the recommended MCF7 programme for high cell viability (i.e. E-014). 500 μl of TPA (12-O-tetradecanoylphorbol-13-acetate)-supplemented growth media (i.e. DMEM/10% FBS/1% Pen-Strep/10 nM TPA) was added to the cuvette and 100 μl of this solution was transferred to a well of a 96 well plate and incubated at 37° C./5% CO2 for 8 hours.
The celled were fixed by removing the growth media, adding 3.7% Formaldehyde in PBS and incubating at RT for 20 mins. The plate was washed three times in PBS. And the cells were permeabilised by washing 5× for 5 mins each in PBS+0.1% Triton X-100.
The cells were blocked by adding 3% BSA in PBS-Tween to the cells and incubating at RT for 1.5 hours. An anti-PDCD4 antibody (Abcam cat no: ab80590) was added at a concentration of 1:1000 in 3% BSA in PBS-T (50 ul/well) and incubated at RT for 2.5 hours. The cells were washed 5× for 5 mins each with PBS-T before the secondary antibody (LiCor Biosciences Donkey Anti-Rabbit IRDye 800CW cat no 926-32213) was added at a concentration of 1:1000, along with the DNA stain DRAQ5 at a concentration of 1:10000, in 3% BSA in PBS-T (50 ul/well) and incubated at RT for 1 hour, protected from light.
The cells were washed cells 5× for 5 mins each with PBS-T and all the liquid was removed from the wells before the plate was read on the LiCor Biosciences Odyssey at 700 nm and 800 nm. The reading was normalised in the 800 nm channel to that in the 700 nm channel. The data are shown in FIG. 12, where DMSO was used as a negative control and 20 μM MG132 was used as a positive control. The data is presented as percentage activity with DMSO=0% and […]=100% activity. Error bars represent standard deviation from 3 replicates.
The compounds shown in FIGS. 14A-14B were synthesised to improve cell permeability. […] FIG. 16 compares the round II compounds (shown in FIGS. 14A-14B) with UBP036 in this assay. […] Inhibition of βTrCP, which is responsible for the degradation of both PDCD4 and β-catenin, causes a concomitant stabilisation and accumulation of levels of these proteins which can be measured by in cell western assay.

[2] = test system: MCF7:GFP-PDCD4^WT; test: Fluorescence reporter assay for PDCD4 accumulation, wild type
Procedure: Fluorescence Reporter Assay for PDCD4 Accumulation
This assay uses two stable cell lines expressing PDCD4 fused to a GFP tag.
The two stable cell lines MCF7:GFP-PDCD4^WT and MCF7:GFP-PDCD4^S71A/S76Awere grown in 10 ml DMEM+10% FBS and 1% Pen/Strep supplemented with 2 mg/ml Geneticin at 37° C./5% CO2. These cell lines were nucleofected as described above except for the additional supplementation of all media with 2 mg/ml Geneticin.
Fluorescent Reporter Assay
The cells were fixed by removing the growth media and adding 3.7% Formaldehyde in PBS to the cells. The cells were then incubated at RT for 20 mins and the plates washed 3× in PBS.
DRAQ5 DNA stain was added to the cells in PBS at a concentration of 1:10000 and incubated at RT for 1 hour protecting from light. The plate was washed 3× in PBS and read on the Perkin Elmer OPERA platform using the nuclei counting algorithm F in both the 488 nm channel (GFP) and 640 nm channel (DRAQ5). DMSO was used as a negative control and 10 μM MG132 was used as a positive control. Error bars represent standard deviation from 6 replicates. The data are expressed as percentage activity with DMSO (WT)=0% and 10 μM MG132 (WT)=100% activity.
This confirms that the stabilisation resulting from the compounds is dependent on the βTrCP/PDCD4 interaction and is not due to another mechanism such as a global increase in protein production.

[3] = test system: LNCaP (prostate cancer); test: xCELLigence cell viability / proliferation, LNCaP
Procedure: Example 9—Cell Based Activity of Cell Permeable Compounds on the xCELLigence Platform
The effects of the compounds shown in FIGS. 14A-14B were tested on cancer cell lines MCF7 (breast cancer) and LNCaP (prostate cancer) using the xCELLigence platform (http://www.roche-applied-science.com/sis/xcelligence/ezhome.html). This method of measuring cell viability via measuring cell index is known in the art.
Different doses of the compounds were tested on MCF7 cells to see if there would be an effect on their cell viability.
The control compound was compared to its partner active compound (UBP037).
(§1) xCELLigence Method • Before starting the experiment add 50 μL of medium (RPMI 1640, 10% fetal bovine serum, 100 units/mL penicillin, 100 ug/mL streptomycin, and 2 mmol/L glutamine, all from GIBCO) to each well of 96 well E-plate (Roche) and place the plate in the xCELLigence platform to measure the background. • LNCaP/PNT-1 cells are seeded (LNCaPs 80000 cells/well; PNT1 3000 cells/well) in the plate in complete medium and equilibrated for 60 mins at RT before returning to the xCELLigence platform and incubating at 37° C./5% CO2. • 24 hrs after seeding, remove 100 μL of medium was removed from each well and cells were treated with compounds or DMSO diluted in 100 μL of OptiMEM (GIBCO). • Replace the plate in the xCELLigence platform • Cells growth can then be monitored in real-time by the cell index profile on the xCELLigence readout screen • Cell growth can be expressed as normalized cell index and doubling time/slope calculated using the RTCA software.

[4] = test system: PNT-1 cell line; test: xCELLigence cell growth, non-malignant PNT-1
Procedure: as §1
The susceptibility of cancer cell lines versus non-cancer cell lines following treatment with the compounds was also investigated.

COc1ccc(S(=O)(=O)N[C@H](CC(=O)O)C(=O)N[C@@H](CCC(=O)O)C(=O)NCC(=O)N[C@@H](Cc2cccc(F)c2)C(=O)N[C@@H](Cc2c[nH]c3ccccc23)C(=O)N[C@@H](CCC(=O)O)C(=O)NCCCCCC(=O)N[C@@H](CCCCNC(=O)CCCCCNC(=O)O[C@H]2CC[C@@]3(C)C(=CCC4C3CC[C@@]3(C)C4CC[C@@H]3[C@H](C)CCCC(C)C)C2)C(N)=O)cc1 (some centres unmarked) [UBP036, 4-(MeO)PhSO2-dEGF(3F)WE-Ahx-K(Ahx-Chol)-NH2] ({Benzenesulfonyl(4-OMe)}-[dD]EG[Phe(3-F)]WE[Ahx]K([Ahx-X3])-NH2)
accumulation of PDCD4, in cell western ([1]; MCF7, treatment with cell permeable compound): accumulation of PDCD4 | cell based activity ([1]; general statement, different delivery vehicles): display cell based activity | accumulation of GFP-PDCD4, fluorescent reporter assay [2]: GFP-PDCD4 accumulation | cell growth / proliferation, xCELLigence [3]: inhibit the growth | cell growth, xCELLigence [4]: far less effect
